Values belong to the compound of their own block, whether it stands above or below them.
Experiments:
CD45 = assay: In vivo CD45 silencing in leukocyte populations; conditions: peritoneal cavity and spleen, three days post intravenous delivery
Description: In these experiments, LNPs were formulated with siRNA specific against CD45, which is a tyrosine phosphatase protein found on the surface of all white blood cells. Three days following the intravenous delivery of LNPs in mice, immune cells were harvested from the peritoneal cavity and spleen. Cells were stained with fluorescent antibodies, and CD45 protein silencing was quantified in specific immune cell subsets via flow cytometry analysis.

Factor VII = assay: In vivo Factor VII gene silencing in mouse hepatocytes; design: species or system mice; conditions: for Relative FVII Activity: tail vein, serum two days post-injection
Protocol: Female C57BL/6 mice (Charles River Laboratories, Wilmington, Mass.) received injections through the lateral tail vein injections of PBS (negative control), or lipidoid nanoparticles containing either non-targeting siRNA (negative control) or anti-Factor VII siRNA diluted in PBS at a volume of 0.01 ml/g.
Two days post-injection, a 100 ul blood sample was obtained from mice and centrifuged at 13,000 rpm in serum separator tubes (Becton Dickinson). Serum levels of Factor VII were analyzed using a Biophen FVII assay kit as described previously (Aniara Corporation, Mason, Ohio) Semple, S. C. et al. Nature Biotechnology 1-7 (2010).
Selected lipidoids (those data points shown in red in FIG. 3a) were analyzed for siRNA delivery to hepatocytes in a murine model of the blood coagulation Factor VII. […] In these experiments, LNPs containing anti-Factor VII siRNA were injected intravenously into mice, and Factor VII activity levels were quantified two days post-injection.

[1] = tested on: HeLa cells stably modified to express both firefly and Renilla luciferase; assay: In vitro transfection of HeLa cells with lipid nanoparticles (firefly luciferase silencing); type: cell-based; conditions: 40 nM anti-firefly luciferase siRNA formulated with lipidoid; firefly normalized to Renilla; crude lipidoids
Protocol: HeLa cells stably modified to express both firefly and Renilla luciferase were maintained at 37° C. in high glucose Dulbecco's Modified Eagles Medium without phenol red (Invitrogen, Carlsbad, Calif.) supplemented with 10% fetal bovine serum (FBS, Invitrogen). 12-16 hours prior to transfection, cells were seeded in white 96-well plates at a density of 15,000 cells per well. Cells were transfected with a 40 nM concentration of anti-firefly luciferase siRNA (Dharmacon, Lafayette, Colo.) that had been formulated with lipidoids into nanoparticles. Firefly luciferase silencing was assessed with a Dual-Glo® Luciferase Assay kit (Promega, Madison, Wis.). Renilla luciferase activity served as a control.
To determine the transfection ability of lipidoids, they were first formulated into lipid nanoparticles (LNPs) containing siRNA, cholesterol and the helper lipids, DSPC and PEG(MW2000)-DMG. The delivery potential of lipidoids was assessed by applying LNPs to HeLa cells that had been genetically modified to stably express two reporter luciferase proteins: firefly and Renilla. Firefly luciferase served as the target gene while Renilla luciferase served as a built-in control for toxicity and off-targeting effects.

Serum clinical chemistry = type: in vivo, mice; conditions: 72 hours after single 3 mg/kg dose or four once weekly 3 mg/kg doses
Protocol: The mice had been injected with either a single 3 mg/kg dose of total siRNA or four 3 mg/kg doses (1× per week for four weeks). Blood was drawn for analysis 72 hours post-final injection. There were no statistically significant changes in any of the clinical chemistry parameters for any of the treated groups compared to controls (as evaluated by a student t-test). Error bars represent standard deviation (n=3-5).
(§1) Post-sacrifice, cardiac sticks were immediately performed on animals that had been dosed with either 304O13 or C12-200 lipid nanoparticles. Blood was centrifuged in serum separator tubes at 5,000 rpm for 10 minutes, and serum was analyzed for various hematological parameters. Serum chemistry was evaluated on a Beckman Olympus AU400 Serum Chemistry Analyzer. Cytokines were analyzed using Bio-Plex Pro Mouse Cytokine 23-Plex Assay kits (Luminex Corporation, Austin, Tex.) on the Bio-Plex 200 system, according to manufacturer instructions.
A preliminary safety assessment was conducted on the lead LNP, 304O13, and it was compared to another previously-discovered LNP formulation, C12-200 (Love, K. T. et al. Lipid-like materials for low-dose, in vivo gene silencing. PNAS 107, 1864-1869 (2010)). […] Serum cytokine levels for both materials were assessed in mice four hours after a 3 mg/kg IV bolus injection (total siRNA). […]

Serum cytokine profiling = type: in vivo, mice; conditions: four hours after 3 mg/kg IV bolus (total siRNA)
Protocol: as §1
Cytokine analysis was done by injecting either 304O13 or C12-200 nanoparticles at an siRNA dose of 3 mg/kg. Four hours post-injection, blood was harvested via cardiac stick and serum was isolated. Cytokine levels were quantified using an ELISA assay.
A preliminary safety assessment was conducted on the lead LNP, 304O13, and it was compared to another previously-discovered LNP formulation, C12-200 (Love, K. T. et al. Lipid-like materials for low-dose, in vivo gene silencing. PNAS 107, 1864-1869 (2010)). […] Serum cytokine levels for both materials were assessed in mice four hours after a 3 mg/kg IV bolus injection (total siRNA). […] Clinical chemistry parameters were evaluated for both materials 72 hours after a single dose of 3 mg/kg and after four once weekly doses of 3 mg/kg each.

[2] = Histology (H&E) of liver, spleen, kidneys and pancreas; type: in vivo, mice; conditions: for dose at which liver necrosis was observed: single-dose studies (0-10 mg/kg)
Protocol: Organs were harvested from animals that had received various doses of either 304O13 or C12-200 lipid nanoparticles (C12-200 is a control non-degradable lipidoid shown below). Organs were fixed overnight in 4% paraformaldehyde and transferred to 70% ethanol prior to paraffin embedding, sectioning, and H & E staining.
Histological analysis was performed through H&E staining on sections from the liver, spleen, kidneys and pancreas. […] Pancreatic inflammation and islet cell enlargement were detected at C12-200 doses ≧2 mg/kg. […] Multi-dose studies were also conducted in which mice received four injections of 0.3, 1, 2, 3, or 5 mg/kg, once per week for four weeks. […] There was no sign of liver toxicity in any of the 304O13 groups up to 5 mg/kg.

Lipidoid hydrolysis = type: physicochemical; conditions: 6 N HCl reflux 24 h; KOH in EtOH/H2O reflux 41 h
Protocol: To a 25 ml round bottom flask was added 304O13 (0.250 g, 0.263 mmol, 1 equiv). For acidic hydrolysis, 10 ml of a solution of 6 N HCl was added to the flask to afford a cloudy heterogeneous solution. The reaction was heated to reflux to afford a clear, homogeneous solution and was stirred at reflux for 24 hours. For basic hydrolysis, 10 ml of a solution of KOH in EtOH/H2O (solution=5.61 g KOH in 47.5 ml EtOH w/2.5 ml distilled H2O) was added to the flask to afford a clear colorless solution. The reaction was heated to reflux and stirred for 41 h. […] Reactions were concentrated to dryness under reduced pressure and diluted with CDCl3. The basic reaction was filtered to remove excess KOH. Proton NMR analysis was performed in CDCl3. Proton nuclear magnetic resonance spectra were recorded with a Bruker Avance 400 spectrometer, are depicted in parts per million on the δ scale, and are referenced from the residual protium in the NMR solvent (CDCl3: δ 7.26 (CHCl3).
The acrylate-based lipidoids provided herein also contain hydrolysable ester moieties, functional groups which are commonly incorporated into delivery vehicles to promote physiological degradation (Staubli, A., Ron, E. & Langer, R. J. Am. Chem. Soc. 112, 4419-4424 (1990); van Dijkhuizen-Radersma, et al. Biomaterials 23, 4719-4729 (2002); Geng, Y. & Discher, D. E. J. Am. Chem. Soc. 127, 12780-12781 (2005)).

[3] = Nanoparticle characterization; type: physicochemical
Protocol: Lipid nanoparticles were diluted to an siRNA concentration of ˜5 ug/ml in 0.1× PBS, pH 7.3. siRNA entrapment efficiency was determined using the Quant-iT™ RiboGreen® RNA assay (Invitrogen). Particle sizes were measured with a ZETAPa1s analyzer (Brookhaven Instruments, Holtsville, N.Y.). Sizes reported are the average effective diameter of each LNP. Zeta potential measurements were acquired on a Zetasizer Nano ZS (Malvern, Westborough, Mass.), and reported values were the average of 10-25 runs.
Entrapment of siRNA refers to the percentage of siRNA in solution that is incorporated into the nanoparticle during formulation, as measured by an RNA dye-binding assay (Nolan, T., Hands, R. E. & Bustin, S. A. Quantification of mRNA using real-time RT-PCR. Nat. Protoc 1, 1559-1582 (2006)). […] Zeta potential measurements were conducted under neutral pH conditions. pKa values, which were obtained using a toluene nitrosulphonic acid (TNS) assay, evaluated the pKa of the nanoparticle surface (Heyes, J., Palmer, L., Bremner, K. & MacLachlan, I. Cationic lipid saturation influences intracellular delivery of encapsulated nucleic acids. J Control Release 107, 276-287 (2005)).

[4] = Biodistribution of Cy5.5-labeled siRNA (IVIS, Odyssey, confocal); conditions: liver harvested one hour post-injection
[5] = multi-dose, four injections once per week for four weeks

Structure (SMILES): CCCCCCCCCCCCOC(=O)CCN(CCC(=O)OCCCCCCCCCCCC)CC1(C)CC(N(CCC(=O)OCCCCCCCCCCCC)CCC(=O)OCCCCCCCCCCCC)CC(C)(C)C1 (stereo not shown) [Lipidoid 315O12]
CD45 silencing in immune cells (CD45): modest CD45 silencing
Relative FVII Activity (Factor VII; 5 mg/kg siRNA): 0.99
Relative Luciferase Activity [1]: 0.30

Structure (SMILES): CCCCCCCCCCCCCOC(=O)CCN(CCC(=O)OCCCCCCCCCCCCC)CCN(CCC(=O)OCCCCCCCCCCCCC)CCN(CC)CC [Lipidoid 123O13]
Relative FVII Activity (Factor VII; 0.1 mg/kg siRNA): 0.86
Relative FVII Activity (Factor VII; 0.5 mg/kg siRNA): 0.50
Relative FVII Activity (Factor VII; 2 mg/kg siRNA): 0.00
Relative FVII Activity (Factor VII; 5 mg/kg siRNA): 0.00
Relative Luciferase Activity [1]: 0.22

serum IL-6, IP-10, KC and MCP-1 levels vs PBS control and 304O13 groups (Serum cytokine profiling): elevated
doses at which pancreatic inflammation and islet cell enlargement were detected ([2]; single-dose studies): ≥ 2 mg/kg
Structure (SMILES): CCCCCCCCCCC(O)CN(CCN1CCN(CCN(CC(O)CCCCCCCCCC)CC(O)CCCCCCCCCC)CC1)CCN(CC(O)CCCCCCCCCC)CC(O)CCCCCCCCCC (stereo not shown) [Lipidoid C12-200, reference compound]
albumin, ALT, AST, ALP, total bilirubin, GGT (Serum clinical chemistry): no toxicologically significant increases
doses at which liver necrosis and inflammation were observed [2, 5]: ≥ 1 mg/kg
dose at which liver necrosis was observed [2]: 7.5 mg/kg

Structure (SMILES): CCCCCCCCCCCCCCOC(=O)CCN(CCC(=O)OCCCCCCCCCCCCCC)CCC1CCN(CCC(=O)OCCCCCCCCCCCCCC)CC1 [Lipidoid 205O14]
Relative FVII Activity (Factor VII; 5 mg/kg siRNA): 0.83
Relative Luciferase Activity [1]: 0.43

Structure (SMILES): CCCCCCCCCCCCCOC(=O)CCN(C)CCCN(CC)CCCN(C)CCC(=O)OCCCCCCCCCCCCC [Lipidoid 218O13]
Relative FVII Activity (Factor VII; 5 mg/kg siRNA): 0.73
Relative Luciferase Activity [1]: 0.41

Structure (SMILES): CCCCCCCCCCCCCOC(=O)CCN(CCC(=O)OCCCCCCCCCCCCC)CC1CCCN1C (stereo not shown) [Lipidoid 232O13]
Relative Luciferase Activity [1]: 0.39

Structure (SMILES): CCCCCCCCCCCCCOC(=O)CCN(C)CCN(CCN(C)CCC(=O)OCCCCCCCCCCCCC)CCN(C)CCC(=O)OCCCCCCCCCCCCC [Lipidoid 304O13]
degradation under hydrolytic conditions (1H NMR, TLC) (Lipidoid hydrolysis): degraded to the anticipated alkyl-alcohol product
CD45 silencing in immune cells (CD45): most robust CD45 silencing
albumin, ALT, AST, ALP, total bilirubin, GGT (Serum clinical chemistry): no toxicologically significant increases
Relative FVII Activity (Factor VII; 0.1 mg/kg siRNA): 0.54
Relative FVII Activity (Factor VII; 0.5 mg/kg siRNA): 0.23
Relative FVII Activity (Factor VII; 2 mg/kg siRNA): 0.02
Relative FVII Activity (Factor VII; 5 mg/kg siRNA): 0.01
time for Factor VII levels to return to baseline (Factor VII; optimized 304O13, single injection at 0.1 mg/kg): ≤ 18 days
siRNA Entrapment ([3]; lipid nanoparticle, RiboGreen RNA assay): 84.2%
Diameter ([3]; lipid nanoparticle, average effective diameter): 86.0 nm
Zeta Potential ([3]; lipid nanoparticle, neutral pH): 13.7 mV
pKa ([3]; nanoparticle surface, TNS assay): 6.8
Relative Luciferase Activity [1]: 0.08
doses with no sign of liver toxicity [2, 5]: up to 5 mg/kg
dose at which a small amount of apoptosis in splenic red pulp was observed ([2]; single-dose studies): 10 mg/kg
dose at which liver necrosis was observed [2]: 10 mg/kg
siRNA distribution within liver (confocal microscopy) [4]: siRNA accumulation throughout nearly all hepatocellular tissue

Structure (SMILES): CCCCCCCCCCCCCCOC(=O)CCN(CCC(=O)OCCCCCCCCCCCCCC)[C@@H](CO)[C@H](C)O [Lipidoid 196O14]
Relative FVII Activity (Factor VII; 5 mg/kg siRNA): 0.82
Relative Luciferase Activity [1]: 0.38

Structure (SMILES): CCCCCCCCCCCCCOC(=O)CCN(CCC(=O)OCCCCCCCCCCCCC)CC1CCCN(C)C1 (stereo not shown) [Lipidoid 235O13]
Relative FVII Activity (Factor VII; 5 mg/kg siRNA): 0.39
Relative Luciferase Activity [1]: 0.42

Structure (SMILES): CCCCCCCCCCCCCOC(=O)CCN(CCC(=O)OCCCCCCCCCCCCC)CCN(C)CCCN(C)CCN(CCC(=O)OCCCCCCCCCCCCC)CCC(=O)OCCCCCCCCCCCCC [Lipidoid 503O13]
FVII knockdown with control (non-targeting) siRNA (Factor VII; LNP encapsulating control siRNA): did not result in FVII knockdown
Relative Luciferase Activity [1]: 0.07

Structure (SMILES): CCCCCCCCCCCCOC(=O)CCN(CCC(=O)OCCCCCCCCCCCC)C[C@@H]1CCCN1CCC(=O)OCCCCCCCCCCCC [Lipidoid 154O12]
Relative FVII Activity (Factor VII; 5 mg/kg siRNA): 0.99
Relative Luciferase Activity [1]: 0.33
